Test [1] has as its target T1, human ABCB10 (Homo sapiens, UniProt Q9NRK6).
T1 sequence (Q9NRK6 152-738): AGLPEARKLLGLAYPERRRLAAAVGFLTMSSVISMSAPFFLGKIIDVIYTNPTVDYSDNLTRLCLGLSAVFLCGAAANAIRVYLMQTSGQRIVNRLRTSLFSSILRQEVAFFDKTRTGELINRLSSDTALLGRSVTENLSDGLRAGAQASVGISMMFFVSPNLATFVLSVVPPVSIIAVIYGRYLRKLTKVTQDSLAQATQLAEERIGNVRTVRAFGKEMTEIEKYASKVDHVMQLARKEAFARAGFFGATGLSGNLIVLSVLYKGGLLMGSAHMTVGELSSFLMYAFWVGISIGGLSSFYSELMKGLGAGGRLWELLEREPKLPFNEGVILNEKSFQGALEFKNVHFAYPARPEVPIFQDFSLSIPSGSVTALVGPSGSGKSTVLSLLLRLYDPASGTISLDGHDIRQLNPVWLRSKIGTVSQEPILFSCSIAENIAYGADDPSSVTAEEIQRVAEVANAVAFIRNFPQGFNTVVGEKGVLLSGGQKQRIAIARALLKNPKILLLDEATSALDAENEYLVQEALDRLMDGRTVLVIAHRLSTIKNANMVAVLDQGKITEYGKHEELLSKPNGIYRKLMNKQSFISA
To be noted: 0.3 μM protein, 0-2000 μM ATP, 5 mM MgCl2, 37 °C, no added lipid.

The target of test [2] is T1, human ABCB10. Put plainly: ATPase activity, malachite green phosphate assay. It is filed as biochemical.

SMILES strings stand for the structures.

With `Nc1ncnc2c1ncn2[C@@H]1O[C@H](COP(=O)(O)OP(=O)(O)OP(=O)(O)O)[C@@H](O)[C@H]1O` [ATP], at human ABCB10 [1], the KM entry is given as “Michaelis–Menten equation was fitted to the initial rates to determine the Michaelis constant (KM)”.

Turning to `CCCCCCCC/C=C\CCCCCCCC(=O)OC[C@H](COP(=O)(O)OCC(O)COP(=O)(O)OC[C@@H](COC(=O)CCCCCCC/C=C\CCCCCCCC)OC(=O)CCCCCCC/C=C\CCCCCCCC)OC(=O)CCCCCCC/C=C\CCCCCCCC` (some centres unmarked) [TOCDL, 1,1′,2,2′-tetraoleoyl-cardiolipin], the IC50 – broadly, the concentration needed to halve the response being measured – against human ABCB10 [2] is about 10 µM.
